# Measurements published in PubChem BioAssay AID1963962 (Molecular Pharmacology Branch, DTP, NCI, 2024).
# Several values for one entry are separate records, joined by “and”; a condition that tells them apart may be missing. Equal values may be shown once.
# Test system: 967376-340-R-J2-PDC multicell spheroid viability
# Assay: Anticancer human tumor 967376-340-R-J2-PDC patient-derived colon adenocarcinoma cell line growth inhibition [PI3K]
# Details: for viability, T/C: stronger effect = lower value
# Excerpt: Combinatorial screen of targeted agents with the PI3K inhibitors inavolisib, alpelisib, duvelisib, and copanlisib in multi-cell type tumor spheroids
# A high-throughput screen of multi-cell type tumor spheroids was designed to identify active combinations of targeted small molecules and PI3K pathway inhibitors. Complex spheroids include a stromal component modeled by human endothelial cells (HUVEC) and fibroblasts modeled by human mesenchymal stem cells (MSCs). The concentration ranges selected for each drug and investigational agent were based upon clinically achievable concentrations if the clinical Cmax of the agent was known.
# Compounds. The drugs and investigational agents: inavolisib (NSC800729), alpelisib (NSC765974), duvelisib (NSC772469), copanlisib (NSC816437), ipatasertib (NSC767898), afuresertib (NSC778305), talazoparib (NSC767125), sapanisertib (NSC764658), selumetinib (NSC741078), tovorafenib (DAY101, NSC766906), vemurafenib (NSC761431), ravoxertinib (NSC781343), sotorasib (NSC818433), MRTX1133 (NSC 836407), abemaciclib (NSC 768073), palbociclib (NSC758247), venetoclax (NSC 766270), SY5609 (NSC837396), enzalutamide (NSC755605), and darolutamide (NSC825331), were obtained from the National Cancer Institute (NCI) Developmental Therapeutics Program Chemical Repository. The FDA-approved anticancer drug set is available from the NCI Developmental Therapeutics Program. […] The stock solutions were prepared in dimethyl sulfoxide (DMSO, Sigma-Aldrich, St. Louis, MO, cat. D2650) at 800-fold the tested concentration and stored at -70 degrees C prior to their use. All drugs and investigational agents were tested over a range starting from a high concentration at or near the clinical Cmax and decreasing in half-log increments. If the clinical Cmax for an agent had not been determined, the highest concentration tested was 10 microM.
# Cell Culture. All cells were maintained in an incubator at 37 degrees C and 5% CO2 with 95% humidity. The PDC lines were cultured according to standard operating procedures established by the NCI PDMR (https://pdmr.cancer.gov/sops/default.htm). All PDCs were thawed and cultured in Matrigel-coated flasks prepared with a working solution of 1X Ham's F-12 nutrient mix, without supplementation (Invitrogen, Waltham, MA, cat. 11765054), 100 U/mL penicillin-streptomycin (Invitrogen, cat. 15140122), and 2.5% Matrigel (Corning Inc., Corning, NY, cat. 354248) for the first three passages. The 354836-022-R-J1-PDC, 475296-252-R-J1-PDC, and 997726-040-R-J2-PDC lines were cultured in 6A media, which includes advanced DMEM/F-12 (Thermo Fisher Scientific, cat. 12634028), 10 mM HEPES (Thermo Fisher Scientific, cat. 15630080), 1X GlutaMAX supplement (Thermo Fisher Scientific, cat. 35050061), 0.1 mg/mL primocin (InvivoGen, San Diego, CA, cat. ant-pm-2), 10% defined fetal bovine serum, heat inactivated (HyClone Laboratories Inc., Logan, UT, cat. SH30070.03HI), 50% L-WRN conditioned media (ATCC, cat. CRL-3276), 1.25 mM N-Acetyl-L-cysteine (Sigma-Aldrich, cat. A9165), 10 mM nicotinamide (Sigma-Aldrich, cat. N0636), 1X B-27 supplement (Thermo Fisher Scientific, cat. 17504044), 1X N-2 supplement (Thermo Fisher Scientific, cat. 17502048), and 10 microM Y-27632 dihydrochloride (Tocris Bioscience, Bristol, United Kingdom, cat. 1254). The 624824-186-R-J2-PDC line was cultured in 6C/Colon 1B media, which includes all 6A media components plus 50 ng/mL human EGF recombinant protein (Thermo Fisher Scientific, cat. PHG0311). […]
# [1] = curve of first compound, second compound 0.00316 µM
# [2] = curve of first compound, second compound 0.01 µM
# [3] = curve of first compound, second compound 0.0316 µM
# [4] = curve of first compound, second compound 0.1 µM
# [5] = curve of first compound, second compound 0.316 µM
# [6] = curve of first compound, second compound 1 µM
# [7] = second compound 0.00316 µM, first compound 0.0316 µM
# [8] = second compound 0.00316 µM, first compound 0.1 µM
# [9] = second compound 0.01 µM, first compound 0.0316 µM
# [10] = second compound 0.01 µM, first compound 0.1 µM
# [11] = second compound 0.0316 µM, first compound 0.0316 µM
# [12] = second compound 0.0316 µM, first compound 0.1 µM
# [13] = second compound 0.1 µM, first compound 0.0316 µM
# [14] = second compound 0.1 µM, first compound 0.1 µM
# [15] = second compound 0.316 µM, first compound 0.0316 µM
# [16] = second compound 0.316 µM, first compound 0.1 µM
# [17] = second compound 1 µM, first compound 0.0316 µM
# [18] = second compound 1 µM, first compound 0.1 µM
# 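Further: spheroids exposed to agents for 7 days before read-out.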
# 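Wherever viability, T/C is given: luminescence used as surrogate of cell viability.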
smiles,measurement,setting,value
Cn1ncnc1[C@H]1c2n[nH]c(=O)c3cc(F)cc(c23)N[C@@H]1c1ccc(F)cc1 + COc1c(OCCCN2CCOCC2)ccc2c3n(c(=NC(=O)c4cnc(N)nc4)nc12)CCN3,IC50,[1],> 100 nM
same,IC50,[2],> 100 nM
same,IC50,[3],> 100 nM
same,IC50,[4],> 100 nM
same,IC50,[5],< 0.316 nM
same,IC50,[6],< 0.316 nM
same,"viability, T/C","second compound 0.00316 µM, first compound 0.000316 µM",102%
same,"viability, T/C","second compound 0.00316 µM, first compound 0.001 µM",95%
same,"viability, T/C","second compound 0.00316 µM, first compound 0.00316 µM",76.1%
same,"viability, T/C","second compound 0.00316 µM, first compound 0.01 µM",97%
same,"viability, T/C",[7],88.7%
same,"viability, T/C",[8],105%
same,"viability, T/C","second compound 0.01 µM, first compound 0.000316 µM",76.6%
same,"viability, T/C","second compound 0.01 µM, first compound 0.001 µM",94.9%
same,"viability, T/C","second compound 0.01 µM, first compound 0.00316 µM",81.1%
same,"viability, T/C","second compound 0.01 µM, first compound 0.01 µM",73.9%
same,"viability, T/C",[9],80.5%
same,"viability, T/C",[10],87.9%
same,"viability, T/C","second compound 0.0316 µM, first compound 0.000316 µM",85.2%
same,"viability, T/C","second compound 0.0316 µM, first compound 0.001 µM",90.4%
same,"viability, T/C","second compound 0.0316 µM, first compound 0.00316 µM",74.5%
same,"viability, T/C","second compound 0.0316 µM, first compound 0.01 µM",70.9%
same,"viability, T/C",[11],66.8%
same,"viability, T/C",[12],73.4%
same,"viability, T/C","second compound 0.1 µM, first compound 0.000316 µM",53.3%
same,"viability, T/C","second compound 0.1 µM, first compound 0.001 µM",70.4%
same,"viability, T/C","second compound 0.1 µM, first compound 0.00316 µM",56.5%
same,"viability, T/C","second compound 0.1 µM, first compound 0.01 µM",53.5%
same,"viability, T/C",[13],62.5%
same,"viability, T/C",[14],56.4%
same,"viability, T/C","second compound 0.316 µM, first compound 0.000316 µM",42.1%
same,"viability, T/C","second compound 0.316 µM, first compound 0.001 µM",40.9%
same,"viability, T/C","second compound 0.316 µM, first compound 0.00316 µM",44.6%
same,"viability, T/C","second compound 0.316 µM, first compound 0.01 µM",36.2%
same,"viability, T/C",[15],52.7%
same,"viability, T/C",[16],43.2%
same,"viability, T/C","second compound 1 µM, first compound 0.000316 µM",27.8%
same,"viability, T/C","second compound 1 µM, first compound 0.001 µM",26.8%
same,"viability, T/C","second compound 1 µM, first compound 0.00316 µM",39.8%
same,"viability, T/C","second compound 1 µM, first compound 0.01 µM",55.2%
same,"viability, T/C",[17],32.9%
same,"viability, T/C",[18],26.9%
CC(Cn1ccc(-c2ccc(C#N)c(Cl)c2)n1)NC(=O)c1cc(C(C)O)[nH]n1 (stereo unspecified) + COc1c(OCCCN2CCOCC2)ccc2c3n(c(=NC(=O)c4cnc(N)nc4)nc12)CCN3,IC50,[1],> 10000 nM
same,IC50,[2],> 10000 nM
same,IC50,[3],> 10000 nM
same,IC50,[4],> 10000 nM
same,IC50,[5],95.4 nM
same,IC50,[6],< 31.6 nM
same,"viability, T/C",[7],109%
same,"viability, T/C",[8],117%
same,"viability, T/C","second compound 0.00316 µM, first compound 0.316 µM",79.6%
same,"viability, T/C","second compound 0.00316 µM, first compound 1 µM",93.6%
same,"viability, T/C","second compound 0.00316 µM, first compound 3.16 µM",110%
same,"viability, T/C","second compound 0.00316 µM, first compound 10 µM",86%
same,"viability, T/C",[9],91.2%
same,"viability, T/C",[10],77%
same,"viability, T/C","second compound 0.01 µM, first compound 0.316 µM",76.8%
same,"viability, T/C","second compound 0.01 µM, first compound 1 µM",91.6%
same,"viability, T/C","second compound 0.01 µM, first compound 3.16 µM",82.7%
same,"viability, T/C","second compound 0.01 µM, first compound 10 µM",86.1%
same,"viability, T/C",[11],81.7%
same,"viability, T/C",[12],88.1%
same,"viability, T/C","second compound 0.0316 µM, first compound 0.316 µM",61.9%
same,"viability, T/C","second compound 0.0316 µM, first compound 1 µM",57.7%
same,"viability, T/C","second compound 0.0316 µM, first compound 3.16 µM",76.4%
same,"viability, T/C","second compound 0.0316 µM, first compound 10 µM",63.8%
same,"viability, T/C",[13],78.6%
same,"viability, T/C",[14],54.4%
same,"viability, T/C","second compound 0.1 µM, first compound 0.316 µM",59.4%
same,"viability, T/C","second compound 0.1 µM, first compound 1 µM",67.5%
same,"viability, T/C","second compound 0.1 µM, first compound 3.16 µM",70.5%
same,"viability, T/C","second compound 0.1 µM, first compound 10 µM",59.5%
same,"viability, T/C",[15],64.2%
same,"viability, T/C",[16],44.9%
same,"viability, T/C","second compound 0.316 µM, first compound 0.316 µM",48.2%
same,"viability, T/C","second compound 0.316 µM, first compound 1 µM",46.1%
same,"viability, T/C","second compound 0.316 µM, first compound 3.16 µM",57.4%
same,"viability, T/C","second compound 0.316 µM, first compound 10 µM",50.3%
same,"viability, T/C",[17],36.6%
same,"viability, T/C",[18],42.4%
same,"viability, T/C","second compound 1 µM, first compound 0.316 µM",26.6%
same,"viability, T/C","second compound 1 µM, first compound 1 µM",47.1%
same,"viability, T/C","second compound 1 µM, first compound 3.16 µM",34.4%
same,"viability, T/C","second compound 1 µM, first compound 10 µM",32.6%
CC(=O)c1c(C)c2cnc(Nc3ccc(N4CCNCC4)cn3)nc2n(C2CCCC2)c1=O,"viability, T/C",compound 0.000316 µM,101% [middle of 4 runs]
same,"viability, T/C",compound 0.001 µM,95.8% [middle of 4 runs]
same,"viability, T/C",compound 0.00316 µM,103% [middle of 4 runs]
same,"viability, T/C",compound 0.01 µM,98.9% [middle of 4 runs]
same,"viability, T/C",compound 0.0316 µM,118% (2×) and 120% and 81.9%
same,"viability, T/C",compound 0.1 µM,79% [middle of 4 runs]
same,IC50,curve of compound,> 100 nM
